Experimental data from patent US12583855B2, “RET selective inhibitor, preparation method therefor and use thereof” (SHOUYAO HOLDINGS (BEIJING) CO., LTD., priority 2019, dated 2026).
Numbering of substitutions follows the chain as printed.

How the values were obtained:
RET^WT = biological target: T1, RET^WT (Homo sapiens, UniProt P07949); assay: In vitro enzymatic activity assay on RET^WT (HTRF); assay type: biochemical; settings: GST-RET^WT (658-1114 aa) 0.5 nM, ATP 25 μM
T1 construct: GST-RET^WT (658-1114 aa, final concentration of 0.5 nM)
T1 sequence (P07949 658-1114): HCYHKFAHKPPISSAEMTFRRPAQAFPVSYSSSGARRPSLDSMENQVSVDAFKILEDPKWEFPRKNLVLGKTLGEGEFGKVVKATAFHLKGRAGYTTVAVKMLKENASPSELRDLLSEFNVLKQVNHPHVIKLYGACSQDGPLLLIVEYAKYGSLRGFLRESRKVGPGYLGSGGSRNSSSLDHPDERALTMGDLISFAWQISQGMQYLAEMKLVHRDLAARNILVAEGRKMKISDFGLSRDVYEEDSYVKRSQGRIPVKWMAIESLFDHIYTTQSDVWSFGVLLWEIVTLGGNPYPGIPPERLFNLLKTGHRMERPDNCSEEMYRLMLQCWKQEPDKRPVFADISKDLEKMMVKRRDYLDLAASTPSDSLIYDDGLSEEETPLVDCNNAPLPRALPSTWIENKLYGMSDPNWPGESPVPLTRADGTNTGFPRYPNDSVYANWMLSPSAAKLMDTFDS
Procedure: 1. In Vitro Enzymatic Activity Assay for Compounds on RET^WT
The compounds were diluted 5-fold with 100% DMSO starting from 0.2 mM (7 concentrations in total), and 2 μL of each concentration was added to 48 μL of reaction buffer (50 mM HEPES pH7.5, 0.1 mM Na3VO4, 5 mM MgCl2. 1 mM DTT, 0.001% Tween 20, and 100 μg/ml BSA) for dilution and mixing.
The 384-well plate was placed in an incubator and reacted at 23° C. for 2 h before the reaction was stopped by the addition of 5 μL of TK Antibody (purchased from Cisbio) and 5 μL of Streptavidin-XL665 (purchased from Cisbio). […] The enzymatic activity signal of RET^WT was measured at 7 concentrations for each compound and the data were calculated using GraphPad Prism software to obtain the IC50 value for the compound.

RET^V804M = biological target: T2, RET^V804M (Homo sapiens, UniProt P07949, V804M); assay: In vitro enzymatic activity assay on RET^V804M (HTRF); assay type: biochemical; settings: GST-RET^V804M (658-1114 aa) 0.02 nM, ATP 1.5 μM
T2 construct: GST-RET^V804M (658-1114 aa, final concentration of 0.02 nM)
T2 sequence (P07949 658-1114 V804M): T1 sequence (P07949 658-1114) with V147M

VEGFR2 = VEGFR2 (Homo sapiens, UniProt P35968); assay: In vitro enzymatic activity assay on VEGFR2 (HTRF); assay type: biochemical; settings: GST-VEGFR2 0.1 nM, ATP 2.5 μM
Procedure: 3. n Vitro Enzymatic Activity Assay for Compounds on VEGFR2
The compounds were diluted 5-fold with 100% DMSO starting from 1 mM (7 concentrations in total), and 2 μL of each concentration was added to 48 μL of reaction buffer (50 mM HEPES pH 7.5, 0.1 mM Na3VO4, 5 mM MgCl2, 1 mM MnCl2, 1 mM DTT, 0.001% Tween 20, and 100 μg/ml BSA) for dilution and mixing. 2.5 μL of compounds and 5 μL of GST-VEGFR2 (final concentration of 0.1 nM) were added to a 384-well plate (OptiPlate-384, purchased from PerkinElmer), the mixture was mixed by centrifugation, and 2.5 μL of ATP (final concentration of 2.5 μM) and TK Peptide Substrate mixture (final concentration of 1 μM, purchased from Cisbio) were added to start the reaction, with a total reaction volume of 10 μL. The 384-well plate was placed in an incubator and reacted at 23° C. for 1.5 h before the reaction was stopped by the addition of 5 μL of TK Antibody (purchased from Cisbio) and 5 μL of Streptavidin-XL665 (purchased from Cisbio). After further incubation in the incubator for 1 h. fluorescence values (excitation at 320 nm, detecting emitted light at 665 nm and 620 nm, and a ratio of the two as an enzyme activity signal) were read on Envision (purchased from PerkinElmer). The enzymatic activity signal of VEGFR2 was measured at 7 concentrations for each compound and the data were calculated using GraphPad Prism software to obtain the IC50 value for the compound.

TT cells = assay: TT cell proliferation activity (Cell-Titer Glo); assay type: cell-based; settings: TT human thyroid carcinoma cells, 120 h
Procedure: 4. Determination of TT Cell Proliferation Activity of Compounds
TT cells, a human thyroid carcinoma cell line, were cultured in Ham's F-12K medium supplemented with 15% fetal bovine serum (FBS, purchased from Biological Industries, BI) and 1% penicillin/streptomycin double antibody (P/S, purchased from Life Technology) under conditions of 37° C. and 5% CO2. TT cells were plated in a 96-well plate (#3917 purchased from Corning) at a concentration of 5000 cells/195 μL/well the day before compound was detected. The compounds were diluted 3-fold with 100% DMSO starting from 10 mM (10 concentrations in total) after 24 h, and 2 μL of each concentration was diluted in 48 μL of Ham's F-12K medium. 5 μL of each diluted compound was added to the plated Cell suspension, the compound and cells were co-incubated in a cell incubator for 120 h (5 days), after the medium was aspirated. 25 μL of Cell-Titer Glo (G7570, purchased from Promega) reagent was added and re-incubated for 5-10 min. Fluorescence value was then read on Envision and the data were calculated using GraphPad Prism software to obtain IC50 values for inhibition of cell proliferation by the compounds.

[1] = Pharmacokinetic data of compounds in male SD rats; assay type: in vivo; settings: rat, po, intragastric, 5 mg/kg, suspension MC 0.5%, plasma
Procedure: 6. Pharmacokinetic Data of Compounds
Male SD rats (Beijing Vital River Laboratory Animal Technology Co., Ltd) were divided into groups. 3 in each group, received intragastric administration with the suspension of the test sample (5 mg/kg, suspensions MC 0.5%), respectively. Animals were fasted overnight prior to the experiment from 10 h before dosing to 4 h after dosing. Blood was collected 0.25, 0.5, 1, 2, 4, 6, 8, and 24 h after administration, respectively. After isoflurane anesthesia using a small animal anesthesia machine, 0.3 mL of whole blood samples was taken through the fundus venous plexus, placed in a heparin anticoagulant tube, and were centrifuged at 4° C. 4000 rpm for 5 min plasma was transferred to the centrifuge tube, and stored at −80° C. until analysis. Samples in the plasma were extracted using protein precipitation and the extracts were analyzed by LC/MS.

Sequence of VEGFR2 (P35968 20-1356): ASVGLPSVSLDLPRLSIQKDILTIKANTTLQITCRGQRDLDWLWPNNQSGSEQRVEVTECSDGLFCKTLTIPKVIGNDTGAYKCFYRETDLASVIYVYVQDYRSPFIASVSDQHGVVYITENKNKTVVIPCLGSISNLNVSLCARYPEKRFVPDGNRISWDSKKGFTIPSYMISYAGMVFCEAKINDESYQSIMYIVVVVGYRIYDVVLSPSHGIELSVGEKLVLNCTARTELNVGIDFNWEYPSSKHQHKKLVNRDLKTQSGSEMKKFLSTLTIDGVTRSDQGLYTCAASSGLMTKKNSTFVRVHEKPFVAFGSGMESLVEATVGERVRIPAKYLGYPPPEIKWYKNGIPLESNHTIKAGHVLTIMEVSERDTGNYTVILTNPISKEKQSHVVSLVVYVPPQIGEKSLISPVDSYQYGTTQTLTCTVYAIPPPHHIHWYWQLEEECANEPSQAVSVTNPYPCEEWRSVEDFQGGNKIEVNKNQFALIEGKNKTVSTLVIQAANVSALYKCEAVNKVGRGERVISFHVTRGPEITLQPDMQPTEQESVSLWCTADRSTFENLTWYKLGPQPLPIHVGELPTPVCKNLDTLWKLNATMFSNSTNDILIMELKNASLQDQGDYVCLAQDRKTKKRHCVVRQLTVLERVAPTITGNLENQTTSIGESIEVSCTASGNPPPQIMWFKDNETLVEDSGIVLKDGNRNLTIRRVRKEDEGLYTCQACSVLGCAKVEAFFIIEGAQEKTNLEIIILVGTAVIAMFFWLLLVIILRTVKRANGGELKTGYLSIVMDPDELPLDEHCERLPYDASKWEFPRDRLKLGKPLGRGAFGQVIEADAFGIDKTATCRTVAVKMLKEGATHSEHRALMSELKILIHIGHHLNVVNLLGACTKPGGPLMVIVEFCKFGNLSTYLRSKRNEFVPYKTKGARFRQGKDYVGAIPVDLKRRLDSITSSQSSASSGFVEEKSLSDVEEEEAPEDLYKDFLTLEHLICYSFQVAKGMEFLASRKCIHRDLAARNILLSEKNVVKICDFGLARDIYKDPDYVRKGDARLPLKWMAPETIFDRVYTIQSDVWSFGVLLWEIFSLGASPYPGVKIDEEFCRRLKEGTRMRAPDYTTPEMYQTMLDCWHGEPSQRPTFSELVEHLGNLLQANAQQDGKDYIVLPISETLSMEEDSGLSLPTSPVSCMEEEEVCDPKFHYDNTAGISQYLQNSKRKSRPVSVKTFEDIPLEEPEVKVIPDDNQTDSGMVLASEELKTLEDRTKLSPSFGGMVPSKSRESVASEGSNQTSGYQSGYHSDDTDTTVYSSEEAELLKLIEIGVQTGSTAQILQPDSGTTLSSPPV

Compound	IC50 (RET^WT) [nM]	IC50 (RET^V804M) [nM]	IC50 (VEGFR2) [nM]	IC50 (TT cells) [nM]	AUC(0-inf) [1] [µg·h/mL]	Cmax [1] [µg/mL]	Tmax [1] [h]	half-life [1] [h]
Cn1cc(-c2cc(-c3ccc(N4CCN(C(=O)C5=CCCC5)CC4)nc3)c3c(C#N)cnn3c2)cn1 [Example 2, 4-(6-(4-(cyclopent-1-ene-1-carbonyl)piperazin-1-yl)pyridin-3-yl)-6-(1-methyl-1Hpyrazol-4-yl)pyrazolo[1,5-a]pyridine-3-carbonitrile]	0.108	0.906	13.4	26.1				
COc1ccc(CN2C3CC2CN(c2cnc(-c4cc(-c5cnn(C)c5)cn5ncc(C#N)c45)cn2)C3)cn1 [Example 3, 4-(5-(6-((6-methoxypyridin-3-yl)methyl)-3,6-diazabicyclo[3.1.1]heptan-3-yl)pyrazin-2-yl)-6-(1-methyl-1Hpyrazol-4-yl) pyrazolo[1,5-a]pyridine-3-carbonitride]			3.01	1.01				
CC1=C(C(=O)N2CCN(c3ccc(-c4cc(-c5cnn(C)c5)cn5ncc(C#N)c45)cn3)CC2)CCC1 [Example 6, 6-(1-methyl-1Hpyrazol-4-yl)-4-(6-(4-(2-methylcyclopent-1-ene-1-carbonyl)piperazin-1-yl)pyridin-3-yl)pyrazolo[1,5-a]pyridine-3-carbonitrile]	0.332	1.25	8.91	13.8				
CSCCN1CCN(c2ccc(-c3cc(-c4cnn(C)c4)cn4ncc(C#N)c34)cn2)CC1 [Example 21, 6-(1-methyl-1Hpyrazol-4-yl)-4-(6-(4-(2-(methylthio)ethyl)piperazin-1-yl)pyridin-3-yl)pyrazolo[1,5-a]pyridine-3-carbonitrile]			11.9	27.9				
COc1ccc(CN2CCN(c3ccc(-c4cc(N5CC(F)(F)C5)cn5ncc(C#N)c45)cn3)CC2)cn1 [Example 26, 6-(3,3-difluoroazetidin-1-yl)-4-(6-(4-((6-methoxypyridin-3-yl)methyl)piperazin-1-yl)pyridin-3-yl)pyrazolo[1,5-a]pyridine-3-carbonitrile]	0.422		95.5		45	6	1.75	4.9
COc1ccc(CN2CCN(c3ccc(-c4cc(N5CC(C#N)C5)cn5ncc(C#N)c45)cn3)CC2)cn1 [Example 32, 6-(3-cyanoazetidin-1-yl)-4-(6-(4-((6-methoxypyridin-3-yl)methyl)piperazin-1-yl)pyridin-3-yl)pyrazolo[1,5-a]pyridine-3-carbonitrile]	0.8	3.19	29.1	48.7				
Cn1cc(-c2cc(-c3cnc(N4CC5CC(C4)N5Cc4ccc(S(C)(=O)=O)cc4)cn3)c3c(C#N)cnn3c2)cn1 [Example 41, 6-(1-methyl-1Hpyrazol-4-yl)-4-(5-(6-(4-(methylsulfonyl)benzyl)-3,6-diazabicyclo[3.1.1]heptan-3-yl)pyrazin-2-yl)pyrazolo[1,5-a]pyridine-3-carbonitrile]	0.352	1.04	17.3	18.2				
Cn1cc(-c2cc(-c3cnc(N4CCN(Cc5ccc(S(C)(=O)=O)cc5)CC4)cn3)c3c(C#N)cnn3c2)cn1 [Example 42, 6-(1-methyl-1Hpyrazol-4-yl)-4-(5-(4-(4-(methylsulfonyl)benzyl)piperazin-1-yl)pyrazin-2-yl)pyrazolo[1,5-a]pyridine-3-carbonitrile]	0.642		42.5	47.9				
COc1ccc(CN2C3CC2CN(c2ccc(-c4cc(N5CC(F)(F)C5)cn5ncc(C#N)c45)cn2)C3)nc1 [Example 46, 6-(3,3-difluoroazetidin-1-yl)-4-(6-(6-((5-methoxypyridin-2-yl)methyl)-3,6-diazabicyclo [3.1.1]heptan-3-yl)pyridin-3-yl) pyrazolo[1,5-a]pyridine-3-carbonitrile]	0.159		17.2	37.6				
CSc1ccc(CN2C3CCC2CN(c2ccc(-c4cc(-c5cnn(C(F)F)c5)cn5ncc(C#N)c45)cn2)C3)cn1 [Example 73, 6-(1-(difluoromethyl)-1Hpyrazol-4-yl)-4-(6-(8-((6-(methylthio)pyridin-3-yl)methyl)-3,8-diazabicyclo[3.2.1]octan-3-yl)pyridin-3-yl)pyrazolo[1,5-a]pyridine-3-carbonitrile]	0.753	5.89	65.4					
CSc1cccc(CN2C3CC2CN(c2ccc(-c4cc(-c5cnn(C(F)F)c5)cn5ncc(C#N)c45)cn2)C3)n1 [Example 74, 6-(1-(difluoromethyl)-1Hpyrazol-4-yl)-4-(6-(6-((6-(methylthio)pyridin-2-yl)methyl)-3,6-diazabicyclo[3.1.1]heptan-3-yl)pyridin-3-yl)pyrazolo[1,5-a]pyridine-3-carbonitrile]	0.676	4.19	14.4					
CS(=O)(=O)c1ccc(CN2C3CC2CN(c2ccc(-c4cc(-c5cnn(C(F)(F)F)c5)cn5ncc(C#N)c45)cn2)C3)cc1 [Example 84, 4-(6-(6-(4-(methylsulfonyl)benzyl)-3,64-diazabicyclo[3.1.1]heptan-3-yl)pyridin-3-yl)-6-(1-(trifluoromethyl)-1Hpyrazol-4-yl) pyrazolo[1,5-a] pyridine-3-carbonitrile]	0.309		13.3		27.3	3.09	2	2.78
